Data: ChEMBL document CHEMBL1201862, “PubChem BioAssay data set” (2004)
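Results reflect a 48-hour exposure of cells in 96-well plates to compound at five concentrations. GI50: concentration for 50% inhibition of growth.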 Calls of active or inactive are those of the source. Cut-off read from the data, not from the text of the source: active = GI50 up to about 1.1 µM and inactive = higher.

Legend:
Assay in all cases: inhibition of tumour cell growth, NCI panel, 48 h
DMS-114 = system: DMS-114
DMS-273 = system: DMS-273
KM-20L2 = system: KM-20L2
LXFL 529 = system: LXFL 529
M19-MEL = system: M19-MEL
DLD-1 = system: DLD-1
HOP-18 = system: HOP-18
RXF 631 = system: RXF 631
XF498 = system: XF498

Measured: GI50

CCOC(=O)c1ccc(N2C(=O)Cc3ccccc3C2=O)cc1
inactive: DMS-114 > 100 µM | DMS-273 > 100 µM | KM-20L2 > 100 µM | LXFL 529 > 100 µM | M19-MEL > 100 µM

COc1ccc2nc3cc(Cl)ccc3c(Sc3ccc(NC(C)=O)cc3)c2c1
inactive: DLD-1 6.89 µM | DMS-114 6.84 µM | DMS-273 8.09 µM | HOP-18 > 29.9 µM | KM-20L2 > 21.3 µM | LXFL 529 7.31 µM | M19-MEL 10.9 µM | RXF 631 8.85 µM

COc1cc2c(oc(=O)c3cc4ccoc4c(OC)c32)c2cccc(O)c12
inactive: DLD-1 > 100 µM | DMS-114 > 100 µM | DMS-273 > 100 µM | HOP-18 > 100 µM | KM-20L2 > 100 µM | LXFL 529 > 100 µM | M19-MEL > 100 µM | XF498 > 100 µM

CN(C)CCCNC(=O)c1cccc2ccccc12
inactive: DLD-1 > 100 µM | DMS-114 > 100 µM | DMS-273 > 100 µM | LXFL 529 > 100 µM | M19-MEL > 10 µM | XF498 > 100 µM

CCC1CCc2c(c(=O)oc3c2cc(OC)c2cccc(OC)c23)C1 (configuration not stated)
inactive: DLD-1 48.3 µM | DMS-273 42.6 µM | HOP-18 > 100 µM | KM-20L2 > 100 µM | LXFL 529 44 µM | M19-MEL 55.8 µM | XF498 29.5 µM

CC(=O)OC1COC(N2C(=O)C(=O)c3cc(Br)ccc32)C(OC(C)=O)C1OC(C)=O (configuration not stated)
inactive: DLD-1 > 100 µM | DMS-114 > 100 µM | DMS-273 > 100 µM | HOP-18 > 100 µM | KM-20L2 > 100 µM | LXFL 529 > 100 µM | M19-MEL 52.1 µM | RXF 631 > 100 µM | XF498 > 100 µM

NC(CCC(=O)NC(CSSCCCCS(=O)O)C(=O)NCC(=O)O)C(=O)O (configuration not stated)
inactive: DLD-1 > 100 µM | DMS-114 > 100 µM | DMS-273 > 100 µM | HOP-18 > 100 µM | KM-20L2 > 100 µM | LXFL 529 > 100 µM | M19-MEL > 100 µM | RXF 631 > 100 µM | XF498 > 100 µM

COc1ccc(C2C(Cl)C(=O)N2NC(=O)c2ccccc2O)cc1OC (configuration not stated)
inactive: DLD-1 > 100 µM | DMS-114 41.1 µM | DMS-273 > 100 µM | LXFL 529 > 10 µM | M19-MEL > 100 µM | XF498 15.5 µM

CCCCCCCCC/C=C1\CCC(CN(C)C)C1=O (configuration not stated)
inactive: DLD-1 2.06 µM | DMS-114 2.26 µM | DMS-273 1.69 µM | KM-20L2 2.18 µM | LXFL 529 1.34 µM | M19-MEL 1.86 µM | RXF 631 2.07 µM

COc1cc2c3c(c1OC)C1(C=CC(=O)C=C1)CC3N(C(=O)OC(C)(C)C(Cl)(Cl)Cl)CC2 (configuration not stated)
inactive: DLD-1 8.45 µM | DMS-114 7.55 µM | DMS-273 9.38 µM | HOP-18 22.8 µM | KM-20L2 11.4 µM | LXFL 529 8.85 µM | M19-MEL 10.8 µM | XF498 8.69 µM

CN1C(=O)CNS1(=O)=O
inactive: DLD-1 > 100 µM | DMS-114 > 100 µM | DMS-273 > 100 µM | LXFL 529 > 100 µM | RXF 631 > 100 µM | XF498 > 100 µM

Cc1cc(Cl)cc2c1NC(=O)C2(O)CC(=O)c1ccco1 (configuration not stated)
inactive: DLD-1 > 100 µM | DMS-114 > 100 µM | DMS-273 > 100 µM | HOP-18 4.33 µM | LXFL 529 > 100 µM | M19-MEL 15.6 µM | RXF 631 > 100 µM | XF498 > 100 µM

O=C(O)C(CS)NCc1c2ccccc2nc2ccccc12 (configuration not stated)
inactive: DLD-1 24.4 µM | DMS-273 27 µM | KM-20L2 41.6 µM | LXFL 529 39.7 µM | M19-MEL 34.9 µM | RXF 631 22.3 µM | XF498 15.5 µM

COc1ccccc1NC(=O)C1=C(C)NC(C)=C(C(=O)Nc2ccccc2OC)C1c1ccccc1OC
inactive: DLD-1 > 100 µM | DMS-114 85.5 µM | DMS-273 > 100 µM | HOP-18 > 100 µM | KM-20L2 > 100 µM | LXFL 529 > 100 µM | M19-MEL > 100 µM | RXF 631 > 100 µM

COC(=O)c1ccccc1NC(=O)C(=O)Cc1nc2c3c(ccc2nc1O)C(=O)c1ccccc1C3=O
inactive: DLD-1 6.35 µM | DMS-114 7.62 µM | DMS-273 11.8 µM | HOP-18 > 100 µM | KM-20L2 32.7 µM | LXFL 529 22.6 µM | M19-MEL 6.56 µM | RXF 631 25.2 µM | XF498 26.7 µM

O=[N+]([O-])c1nc(-c2ccccn2)[nH]c1[N+](=O)[O-]
inactive: DLD-1 70.5 µM | DMS-114 19 µM | DMS-273 65.8 µM | KM-20L2 39.6 µM | LXFL 529 89.1 µM | M19-MEL 57.7 µM | RXF 631 57.8 µM | XF498 > 100 µM

COc1ccc2ccccc2c1C1=NC(C)(C)CO1
inactive: DLD-1 > 100 µM | HOP-18 > 100 µM | KM-20L2 > 100 µM | LXFL 529 > 100 µM | M19-MEL > 100 µM | RXF 631 > 100 µM | XF498 > 100 µM

O=C(O)c1ccc(NC(=O)C2C(=O)C(=O)N(c3ccc(C(=O)O)cc3)C2=O)cc1 (configuration not stated)
inactive: DLD-1 > 100 µM | DMS-273 > 100 µM | KM-20L2 > 100 µM | M19-MEL > 100 µM | XF498 > 100 µM

Nc1ccc(S(=O)(=O)Nc2cnc3c(Cl)cccc3n2)cc1 [CHLORSULFAQUINOXALINE]
inactive: DLD-1 93.1 µM | DMS-114 2.94 µM | DMS-273 152 µM | HOP-18 189 µM | KM-20L2 292 µM | LXFL 529 31.4 µM | M19-MEL 232 µM | XF498 275 µM

CC(=O)C(CN(Cc1ccccc1)Cc1ccccc1)C(c1ccccc1)c1c(O)c2ccccc2oc1=O (configuration not stated)
inactive: DLD-1 > 100 µM | KM-20L2 > 100 µM | LXFL 529 > 100 µM | M19-MEL > 100 µM | RXF 631 > 100 µM | XF498 > 100 µM

O=C1c2ccccc2C(=O)c2[nH]c(Cc3ccccc3F)nc21
inactive: DLD-1 16.1 µM | DMS-114 33.7 µM | DMS-273 34.6 µM | HOP-18 93.8 µM | KM-20L2 33.9 µM | LXFL 529 31.9 µM | XF498 53.1 µM

O=C(Nc1ccn(CCO)c(=O)n1)c1ccccc1
inactive: DLD-1 > 100 µM | DMS-114 > 100 µM | DMS-273 > 100 µM | HOP-18 > 100 µM | KM-20L2 > 100 µM | LXFL 529 > 100 µM | M19-MEL > 100 µM | RXF 631 > 100 µM

Cc1ccc(-c2nc3ccccc3c(=O)n2NC2OC(CO)C(O)C(O)C2O)cc1 (configuration not stated)
inactive: DMS-114 > 100 µM | DMS-273 > 100 µM | HOP-18 > 100 µM | KM-20L2 > 100 µM | LXFL 529 > 100 µM | M19-MEL > 100 µM | RXF 631 > 100 µM | XF498 > 100 µM

COC(=O)C(C(=O)C(N)=O)c1csc(-n2nc(-c3ccccc3)cc2-c2ccccc2)n1 (configuration not stated)
inactive: DLD-1 > 31.6 µM | DMS-114 12.8 µM | DMS-273 > 31.6 µM | HOP-18 15.6 µM | KM-20L2 27.4 µM | LXFL 529 > 31.6 µM | M19-MEL > 31.6 µM | RXF 631 > 10 µM | XF498 25.2 µM

CCCO/N=[N+](\[O-])N(CC)CC
inactive: DMS-273 > 100 µM | KM-20L2 > 100 µM | LXFL 529 > 100 µM | XF498 > 100 µM

O=C1C2=C(CCC2)Nc2cccc3ncn1c23
inactive: DLD-1 51.9 µM | DMS-114 > 100 µM | DMS-273 > 100 µM | HOP-18 10.6 µM | KM-20L2 41.9 µM | LXFL 529 > 100 µM | M19-MEL > 100 µM | XF498 34.8 µM

CN(C)c1ccc(/C=C/C=C\c2cc(/C=C/C=C/c3ccc(N(C)C)cc3)[s+]c3ccccc23)cc1.[O-][Cl+3]([O-])([O-])[O-]
inactive: DMS-114 11.1 µM | DMS-273 46.1 µM | KM-20L2 > 100 µM | LXFL 529 8.26 µM | M19-MEL 15.5 µM

O=S(=O)(/C=C/c1ccc(F)cc1)Cc1ccc(CS(=O)(=O)/C=C/c2ccc(F)cc2)cc1
inactive: DLD-1 > 100 µM | DMS-114 > 100 µM | DMS-273 > 100 µM | HOP-18 > 100 µM | KM-20L2 > 100 µM | LXFL 529 > 100 µM | M19-MEL > 100 µM | RXF 631 > 100 µM | XF498 > 100 µM

[N-]=[N+]=Nc1c(Br)c(=O)[nH]c(=O)n1COCCO
inactive: DLD-1 > 100 µM | DMS-114 > 100 µM | DMS-273 > 100 µM | HOP-18 > 100 µM | LXFL 529 > 100 µM | M19-MEL > 100 µM | RXF 631 > 100 µM | XF498 > 100 µM

Nc1nc(=O)[nH]c2c1cnn2COCCO
inactive: DLD-1 > 100 µM | DMS-114 > 100 µM | DMS-273 > 100 µM | HOP-18 > 100 µM | KM-20L2 2.33 µM | LXFL 529 > 100 µM | XF498 > 100 µM

O=C(CC(=O)N1N=C(c2ccccc2)C(/N=N/c2ccc(Cl)cc2)C1=O)Nc1ccccc1Cl (configuration not stated)
inactive: DLD-1 30.3 µM | DMS-114 90.6 µM | DMS-273 32.2 µM | HOP-18 24.2 µM | KM-20L2 80.9 µM | LXFL 529 26.7 µM | M19-MEL 51.3 µM | RXF 631 40.6 µM | XF498 35.7 µM
